In patent publication US8268854B2, “Aza-beta-carbolines and methods of using same” (The UWM Research Foundation, Inc., priority 2008, dated 2012):
Counter-ions that a name gives are not always drawn.

Target: T1, Dopamine receptor D2 (Homo sapiens, UniProt P14416)
T1 construct: expressed in transfected cells
Experiment: PDSP secondary radioligand binding assay
Protocol: Primary and secondary radioligand binding assays are performed. In general, the primary assay is run at very high ligand (compound) concentration as a broad screen to determine whether a compound binds to a particular receptor. If greater than 50% inhibition at 10 μM (high concentration of compound) at a particular receptor is determined, a secondary assay is performed on that receptor. Data from the secondary assay is the binding affinity (Ki value).
This assay is used to test binding to receptors such as the serotonin receptors: 5-HT1A, 5-HT1B, 5-HT1D, 5-HT1E, 5-HT2A, 5-HT2B, 5-HT2C, 5-HT3, 5-HT5A, 5-HT6 and 5-HT7. The protocol is adapted from Roth et al. J. Pharmacol. Exp. Ther. 1986, 238, 480-485 and Roth et al. J. Pharmacol. Exp. Ther. 1994, 268, 1403-1410. The assay buffer is Standard Binding Buffer (50 mM Tris-HCl, 10 mM MgCl2, 0.1 mM EDTA, pH 7.4). The membrane fraction source is transiently or stably transfected cell lines (e.g., HEK293, COS, CHO, NIH3T3).
A solution of the compound to be tested is prepared as a 1 mg/mL stock in Standard Binding Buffer or DMSO according to its solubility. A similar stock of a reference compound (positive control) is also prepared.
Radioligand (see Table 41) is diluted to five times the assay concentration (see Table 21) in Standard Binding Buffer. […]
The 250 μL reactions are incubated at room temperature and shielded from light (to prevent photolysis of light-sensitive ligands) for 1.5 hours, then harvested by rapid filtration onto Whatman GF/B glass fiber filters pre-soaked with 0.3% polyethyleneimine using a 96-well Brandel harvester. […] The tubes are capped, labeled, and counted by liquid scintillation counting. For higher throughput assays, bound radioactivity is harvested onto 0.3% polyethyleneimine-treated, 96-well filter mats using a 96-well Filtermate harvester. The filter mats are dried, then scintillant is melted onto the filters, and the radioactivity retained on the filters is counted in a Microbeta scintillation counter. […]

T1 sequence (P14416 whole entry): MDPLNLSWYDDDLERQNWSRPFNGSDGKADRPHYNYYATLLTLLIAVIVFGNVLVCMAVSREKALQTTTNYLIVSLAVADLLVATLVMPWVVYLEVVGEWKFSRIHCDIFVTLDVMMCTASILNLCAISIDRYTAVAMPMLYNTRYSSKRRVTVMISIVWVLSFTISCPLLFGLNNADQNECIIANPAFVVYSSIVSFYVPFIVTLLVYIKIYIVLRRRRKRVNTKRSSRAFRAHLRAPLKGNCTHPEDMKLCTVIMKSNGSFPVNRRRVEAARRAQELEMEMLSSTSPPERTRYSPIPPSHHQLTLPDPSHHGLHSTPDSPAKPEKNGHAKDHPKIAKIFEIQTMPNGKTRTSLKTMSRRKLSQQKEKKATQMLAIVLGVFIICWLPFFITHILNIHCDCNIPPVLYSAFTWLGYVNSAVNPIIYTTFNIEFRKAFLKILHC

Row | Structure (SMILES) | Ki
1 | CCCOc1cc2c(cn1)[nH]c1cnccc12 [Compound 4, 3-Propoxy pyridino[4′,3′-4,5]pyrrolo[2,3-c]pyridine hydrochloride] | > 10 µM
2 | CCCOc1cc2c(cn1)[nH]c1ccncc12 [Compound 2, 8-Propoxypyridino[4′,3′-5,4]pyrrolo[3,2-c]pyridine hydrochloride] | > 10 µM
